# Experimental data taken from US20190343908A1, “Therapeutic Combination for the Treatment of Cancer” (Nerium Biotechnology Inc., priority 2011, published 2019).
# Key:
# [1] = tested on: A375 melanoma cancer cell line; test: Sulforhodamine B viability assay, A375; type: cell-based, human; conditions: for ABSORBANCE: 0.1 μg/mL cisplatin; for Average absorbance, SRB 24 h / Average absorbance, SRB 48 h / Average absorbance, SRB 72 h: A375 Run 1
# Text: (§1) Three different viability assays were chosen to complement each other and yielded results dependent on concentration and cell line: the Methyl Tetrazolium dye assay, the Sulforhodamine B fluorescent dye assay, and the Crystal Violet dye assay.
# The Sulforhodamine B and Crystal Violet assays provide information about protein and were used to complement the Methyl-Tetrazolium dye assay. […] It is used for the quantification of cellular proteins of cultured cells. The assay using Crystal Violet, a dye that binds electrostatically to proteins and stains DNA, provides a reliable, simple assay for measuring viability of cells.
# (§2) The Methyl Tetrazolium, Sulforhodamine B, and Crystal Violet assays were used to assess cell viabilities. The incubation times were 24 hours, 48 hours, and 72 hours. The Nerium oleander extract Anvirzel™ (a hot water extract of oleander obtained from Salud Integral, Honduras) was tested in concentrations ranging from 0.01 ng/mL to 10 ng/mL.
# (§3) Cells were detached by trypsinization (Trypsin-0.25% EDTA, Invitrogen, 25200-072) during the logarithmic phase of culture growth and plated in 96-well plates (18.000 cells/well) (Corning, Costar 359) in a final volume of 200 μl of medium per well. […] The absorbance was measured after 24 hours, 48 hours, and 72 hours of incubation.
# For the Sulforhodamine B assay, 96-well plates were fixed by 10% trichloroacetic acid (Fluka, 91228) and were incubated at 4° C. for 1 hour. Afterwards, plates were rinsed with water and cells were stained with 0.4% Sulforhodamine B (Sigma, 341738), dissolved in 1% acetic acid (Carlo Ebra, 401422) for 15 minutes at room temperature (RT). The unbound stain was washed twice with 1% acetic acid. Finally, 10 mM Tris Buffer pH 10.5 (Sigma, T6791) was added to dissolve the dye.
# (§4) The optical density of each plate was measured on a μQuant spectrophotometer and the data were analyzed with Gen5 software (μQuant Biomolecular Spectrophotometer MQX200 and Gen5™ Microplate Data Collection & Analysis software, BioTek® Instruments. Inc, April 2008). Absorbance was measured at 570 nm for all assays and a second wavelength was measured in order to subtract noise. For the Methyl-Tetrazolium assay this second wavelength was 630 nm and for the Sulforhodamine B and Crystal Violet assays it was 690 nm.
# [2] = tested on: T47D (human breast cancer); test: Methyl-Tetrazolium viability assay, T47D; type: cell-based; set-up: key: absorbance (optical density) at 570 nm, second wavelength subtracted
# Text: as §1
# The Methyl-Tetrazolium dye assay measures the activity of enzymes in mitochondria. The dye precursor is taken up by cells, where it undergoes reduction to the purple formazan. It measures only the mitochondrial activity and, thus, it is not always a reliable indication of whether the cells themselves are alive or dead, since even a recently dead cell has […] enzyme activity in mitochondria. Intracellular glucose concentration, pH, and time before assay all affect the measurements.
# as §2, §3
# For the Methyl-Tetrazolium assay, the dye (Sigma, M2128; 5 mg/mL, diluted in phosphate-buffered saline) was added to each well and plates were incubated for 3 hours at 37° C. After the end of the incubation period, the medium was discarded and the cells were rinsed with phosphate-buffered saline. Finally, the formazan crystals were dissolved in dimethylsulphoxide (Sigma, D4540).
# as §4
smiles,measurement,setting,value
N.N.[Cl][Pt][Cl] [cisplatin],ABSORBANCE,"[1]; A375, 48 h",2.421
same,ABSORBANCE,"[1]; A375, 72 h",2.487
same,"Average absorbance, SRB 24 h",[1]; 0.1 μg/ml CDDP,2.072
same,"Average absorbance, SRB 48 h",[1]; 0.1 μg/ml CDDP,2.421
same,"Average absorbance, SRB 72 h",[1]; 0.1 μg/ml CDDP,2.487
same,"Average absorbance, SRB 24 h",[1]; 1 μg/ml CDDP,1.579
same,"Average absorbance, SRB 48 h",[1]; 1 μg/ml CDDP,1.987
same,"Average absorbance, SRB 72 h",[1]; 1 μg/ml CDDP,2.256
same,"Average absorbance, SRB 24 h",[1]; 10 μg/ml CDDP,1.117
same,"Average absorbance, SRB 48 h",[1]; 10 μg/ml CDDP,1.678
same,"Average absorbance, SRB 72 h",[1]; 10 μg/ml CDDP,1.913
same,"Average absorbance, SRB 24 h",[1]; 100 μg/ml CDDP,1.283
same,"Average absorbance, SRB 48 h",[1]; 100 μg/ml CDDP,1.782
same,"Average absorbance, SRB 72 h",[1]; 100 μg/ml CDDP,1.319
same,Average absorbance SRB,"[1]; A375 Run 2, 24 h, 0.1 μg/ml CDDP",2.189
same,Average absorbance SRB,"[1]; A375 Run 2, 24 h, 1 μg/ml CDDP",1.916
same,Average absorbance SRB,"[1]; A375 Run 2, 24 h, 10 μg/ml CDDP",1.827
same,Average absorbance SRB,"[1]; A375 Run 2, 24 h, 100 μg/ml CDDP",1.939
same,Average absorbance SRB,"[1]; A375 Run 2, 48 h, 0.1 μg/ml CDDP",2.571
same,Average absorbance SRB,"[1]; A375 Run 2, 48 h, 1 μg/ml CDDP",1.366
same,Average absorbance SRB,"[1]; A375 Run 2, 48 h, 10 μg/ml CDDP",1.265
same,Average absorbance SRB,"[1]; A375 Run 2, 48 h, 100 μg/ml CDDP",1.293
same,Average absorbance SRB,"[1]; A375 Run 2, 72 h, 0.1 μg/ml CDDP",2.634
same,Average absorbance SRB,"[1]; A375 Run 2, 72 h, 1 μg/ml CDDP",2.085
same,Average absorbance SRB,"[1]; A375 Run 2, 72 h, 10 μg/ml CDDP",1.617
same,Average absorbance SRB,"[1]; A375 Run 2, 72 h, 100 μg/ml CDDP",1.491
same,Average absorbance SRB,"[1]; A375 Run 3, 24 h, 0.1 μg/ml CDDP",1.597
same,Average absorbance SRB,"[1]; A375 Run 3, 24 h, 1 μg/ml CDDP",1.126
same,Average absorbance SRB,"[1]; A375 Run 3, 24 h, 10 μg/ml CDDP",1.294
same,Average absorbance SRB,"[1]; A375 Run 3, 24 h, 100 μg/ml CDDP",0.982
same,Average absorbance SRB,"[1]; A375 Run 3, 48 h, 0.1 μg/ml CDDP",2.175
same,Average absorbance SRB,"[1]; A375 Run 3, 48 h, 1 μg/ml CDDP",1.83
same,Average absorbance SRB,"[1]; A375 Run 3, 48 h, 10 μg/ml CDDP",1.586
same,Average absorbance SRB,"[1]; A375 Run 3, 48 h, 100 μg/ml CDDP",1.572
same,Average absorbance SRB,"[1]; A375 Run 3, 72 h, 0.1 μg/ml CDDP",2.184
same,Average absorbance SRB,"[1]; A375 Run 3, 72 h, 1 μg/ml CDDP",1.491
same,Average absorbance SRB,"[1]; A375 Run 3, 72 h, 10 μg/ml CDDP",1.571
same,Average absorbance SRB,"[1]; A375 Run 3, 72 h, 100 μg/ml CDDP",1.271
same,MTT Average,"[2]; T47D Run 1, 24 h, 0.1 μg/ml CDDP",0.166
same,MTT Average,"[2]; T47D Run 1, 24 h, 1 μg/ml CDDP",0.033
same,MTT Average,"[2]; T47D Run 1, 24 h, 10 μg/ml CDDP",0.046
same,MTT Average,"[2]; T47D Run 1, 24 h, 100 μg/ml CDDP",0.045
same,MTT Average,"[2]; T47D Run 1, 48 h, 1 μg/ml CDDP",0.039
same,MTT Average,"[2]; T47D Run 1, 48 h, 10 μg/ml CDDP",0.044
same,MTT Average,"[2]; T47D Run 1, 48 h, 100 μg/ml CDDP",0.038
same,MTT Average,"[2]; T47D Run 1, 72 h, 0.1 μg/ml CDDP",0.336
same,MTT Average,"[2]; T47D Run 1, 72 h, 1 μg/ml CDDP",0.04
same,MTT Average,"[2]; T47D Run 1, 72 h, 10 μg/ml CDDP",0.05
same,MTT Average,"[2]; T47D Run 1, 72 h, 100 μg/ml CDDP",0.049
same,MTT Average,"[2]; T47D Run 2, 24 h, 0.1 μg/ml CDDP",0.181
same,MTT Average,"[2]; T47D Run 2, 24 h, 1 μg/ml CDDP",0.051
same,MTT Average,"[2]; T47D Run 2, 24 h, 10 μg/ml CDDP",0.07
same,MTT Average,"[2]; T47D Run 2, 24 h, 100 μg/ml CDDP",0.051
same,MTT Average,"[2]; T47D Run 2, 48 h, 0.1 μg/ml CDDP",0.262
same,MTT Average,"[2]; T47D Run 2, 48 h, 1 μg/ml CDDP",0.052
same,MTT Average,"[2]; T47D Run 2, 48 h, 10 μg/ml CDDP",0.066
same,MTT Average,"[2]; T47D Run 2, 48 h, 100 μg/ml CDDP",0.054
same,MTT Average,"[2]; T47D Run 2, 72 h, 0.1 μg/ml CDDP",0.397
same,MTT Average,"[2]; T47D Run 2, 72 h, 1 μg/ml CDDP",0.046
same,MTT Average,"[2]; T47D Run 2, 72 h, 10 μg/ml CDDP",0.041
same,MTT Average,"[2]; T47D Run 2, 72 h, 100 μg/ml CDDP",0.037
same,MTT Average,"[2]; T47D Run 3, 24 h, 1 μg/ml CDDP",0.033
same,MTT Average,"[2]; T47D Run 3, 24 h, 10 μg/ml CDDP",0.074
same,MTT Average,"[2]; T47D Run 3, 24 h, 100 μg/ml CDDP",0.047
same,MTT Average,"[2]; T47D Run 3, 48 h, 0.1 μg/ml CDDP",0.261
same,MTT Average,"[2]; T47D Run 3, 48 h, 1 μg/ml CDDP",0.047
same,MTT Average,"[2]; T47D Run 3, 48 h, 10 μg/ml CDDP",0.077
same,MTT Average,"[2]; T47D Run 3, 48 h, 100 μg/ml CDDP",0.051
same,MTT Average,"[2]; T47D Run 3, 72 h, 0.1 μg/ml CDDP",0.371
same,MTT Average,"[2]; T47D Run 3, 72 h, 1 μg/ml CDDP",0.035
same,MTT Average,"[2]; T47D Run 3, 72 h, 10 μg/ml CDDP",0.057
same,MTT Average,"[2]; T47D Run 3, 72 h, 100 μg/ml CDDP",0.035
